# Assays:
# Puccinia triticina = experiment: Wheat brown rust (PUCCRT) disease control on wheat seedlings; type: in vivo; parameters: key to PUCCRT 3DC, HV activity at 100 ppm (% control rating) / PUCCRT disease control, 3DC / PUCCRT 1DP disease control rating, HV activity / PUCCRT 3DC disease control rating, HV activity / PUCCRT 3DC, LV activity at 125.1 g/H (% Control rating) / PUCCRT 1DP, LV activity at 125.1 g/H (% Control rating) / PUCCRT 3DC disease control rating, LV activity at 125.1 g/H / PUCCRT 1DP disease control rating, LV activity at 125.1 g/H / PUCCRT 3DC disease control rating, HV activity at 100 ppm / PUCCRT 1DP disease control rating, HV activity at 100 ppm / HV activity at 100 ppm PUCCRT 3DC (disease control rating) / LV activity at 125.1 g/H PUCCRT 1DP (disease control rating) / LV activity at 125.1 g/H PUCCRT 3DC (disease control rating): A: > 80; B: ≤ 80; C: Not Tested; D: No Activity Observed in the Reported Assay; settings: for LV activity at 125.1 g/H PUCCRT 1DP (disease control rating) / LV activity at 125.1 g/H PUCCRT 3DC (disease control rating) / PUCCRT 1DP disease control rating, HV activity / PUCCRT 3DC disease control rating, HV activity / HV activity at 100 ppm PUCCRT 1DP (disease control rating) / HV activity at 100 ppm PUCCRT 3DC (disease control rating): wheat brown rust; for PUCCRT 1DP disease control rating, HV activity / PUCCRT 3DC disease control rating, HV activity: HV application at 100 ppm; for HV activity at 100 ppm PUCCRT 1DP (disease control rating) / HV activity at 100 ppm PUCCRT 3DC (disease control rating): HV application
# Zymoseptoria tritici = experiment: Leaf blotch of wheat (SEPTTR) disease control on wheat seedlings; type: in vivo; parameters: key to SEPTTR 1DP, HV activity at 100 ppm (% control rating) / SEPTTR 3DC, HV activity at 100 ppm (% control rating) / SEPTTR disease control, 1DP / SEPTTR disease control, 3DC / SEPTTR 1DP disease control rating, HV activity / SEPTTR 3DC disease control rating, HV activity / SEPTTR 3DC, LV activity at 125.1 g/H (% Control rating) / SEPTTR 1DP, LV activity at 125.1 g/H (% Control rating) / SEPTTR 1DP disease control rating, LV activity at 125.1 g/H / SEPTTR 3DC disease control rating, LV activity at 125.1 g/H / SEPTTR 3DC disease control rating, HV activity at 100 ppm / SEPTTR 1DP disease control rating, HV activity at 100 ppm / HV activity at 100 ppm SEPTTR 3DC (disease control rating) / HV activity at 100 ppm SEPTTR 1DP (disease control rating) / LV activity at 125.1 g/H SEPTTR 1DP (disease control rating) / LV activity at 125.1 g/H SEPTTR 3DC (disease control rating): A: > 80; B: ≤ 80; C: Not Tested; D: No Activity Observed in the Reported Assay; settings: for LV activity at 125.1 g/H SEPTTR 1DP (disease control rating) / LV activity at 125.1 g/H SEPTTR 3DC (disease control rating) / SEPTTR 1DP disease control rating, HV activity / SEPTTR 3DC disease control rating, HV activity / HV activity at 100 ppm SEPTTR 1DP (disease control rating) / HV activity at 100 ppm SEPTTR 3DC (disease control rating): wheat leaf blotch; for SEPTTR 1DP disease control rating, HV activity / SEPTTR 3DC disease control rating, HV activity: HV application at 100 ppm; for HV activity at 100 ppm SEPTTR 1DP (disease control rating) / HV activity at 100 ppm SEPTTR 3DC (disease control rating): HV application
# [1] = low volume application, 125.1 g/H, 1 Day Protectant
# [2] = low volume application, 125.1 g/H, 3 Day Curative
# [3] = low volume application, 125.1 g/H, 1 day protectant
# [4] = low volume application, 125.1 g/H, 3 day curative
# [5] = high volume application, 100 ppm, 1 day protectant
# [6] = high volume application, 100 ppm, 3 day curative
structure (smiles),measurement,setting,value
COc1ccnc(C(=O)NC(C)C(=O)OC(C)C(CC(C)C)Oc2ccc3ccccc3c2)c1OC(C)=O (centres unmarked) [Cmpd 1099],LV activity at 125.1 g/H PUCCRT 1DP (disease control rating),Puccinia triticina; [1],A (> 80)
same,LV activity at 125.1 g/H PUCCRT 3DC (disease control rating),Puccinia triticina; [2],A (> 80)
same,LV activity at 125.1 g/H SEPTTR 1DP (disease control rating),Zymoseptoria tritici; [1],B (≤ 80)
same,LV activity at 125.1 g/H SEPTTR 3DC (disease control rating),Zymoseptoria tritici; [2],D
COc1ccnc(C(=O)N[C@@H](C)C(=O)O[C@@H](C)[C@H](Oc2ccc(C(F)(F)F)cc2)C(C)C)c1OCOC(C)=O [Cmpd 618],"PUCCRT 1DP, LV activity at 125.1 g/H (% Control rating)",Puccinia triticina; [1],A (> 80)
same,"PUCCRT 3DC, LV activity at 125.1 g/H (% Control rating)",Puccinia triticina; [2],A (> 80)
same,"SEPTTR 1DP, LV activity at 125.1 g/H (% Control rating)",Zymoseptoria tritici; [1],B (≤ 80)
same,"SEPTTR 3DC, LV activity at 125.1 g/H (% Control rating)",Zymoseptoria tritici; [2],A (> 80)
COc1ccnc(C(=O)NC(C(=O)OC(C)C(Oc2ccccc2)C(C)C)C(F)(F)F)c1OCOC(C)=O (mixture of isomers) [Cmpd 1073],LV activity at 125.1 g/H PUCCRT 1DP (disease control rating),Puccinia triticina; [1],A (> 80)
same,LV activity at 125.1 g/H PUCCRT 3DC (disease control rating),Puccinia triticina; [2],A (> 80)
same,LV activity at 125.1 g/H SEPTTR 1DP (disease control rating),Zymoseptoria tritici; [1],B (≤ 80)
same,LV activity at 125.1 g/H SEPTTR 3DC (disease control rating),Zymoseptoria tritici; [2],B (≤ 80)
COc1ccnc(C(=O)N[C@@H](C)C(=O)O[C@H](C)[C@@H](Oc2ccccc2)C(C)C)c1O [Cmpd 349],"PUCCRT 1DP disease control rating, HV activity",Puccinia triticina; 1 Day Protectant,D
same,"PUCCRT 3DC disease control rating, HV activity",Puccinia triticina; 3 Day Curative,D
same,"SEPTTR 1DP disease control rating, HV activity",Zymoseptoria tritici; 1 Day Protectant,D
same,"SEPTTR 3DC disease control rating, HV activity",Zymoseptoria tritici; 3 Day Curative,B (≤ 80)
CC[C@H](OC)[C@@H](Oc1ccc(Cl)cc1Cl)[C@H](C)OC(=O)[C@H](C)NC(=O)c1nccc(OC)c1O [Cmpd 402],"PUCCRT 1DP disease control rating, HV activity",Puccinia triticina; 1 Day Protectant,B (≤ 80)
same,"PUCCRT 3DC disease control rating, HV activity",Puccinia triticina; 3 Day Curative,B (≤ 80)
same,"SEPTTR 1DP disease control rating, HV activity",Zymoseptoria tritici; 1 Day Protectant,B (≤ 80)
same,"SEPTTR 3DC disease control rating, HV activity",Zymoseptoria tritici; 3 Day Curative,B (≤ 80)
CCC(CC)[C@@H](Oc1ccc(-c2ccccc2)cc1)[C@H](C)OC(=O)[C@@H](NC(=O)c1nccc(OC)c1O)C(C)C [Cmpd 414],"PUCCRT 1DP disease control rating, HV activity",Puccinia triticina; 1 Day Protectant,B (≤ 80)
same,"PUCCRT 3DC disease control rating, HV activity",Puccinia triticina; 3 Day Curative,B (≤ 80)
same,"SEPTTR 1DP disease control rating, HV activity",Zymoseptoria tritici; 1 Day Protectant,A (> 80)
same,"SEPTTR 3DC disease control rating, HV activity",Zymoseptoria tritici; 3 Day Curative,B (≤ 80)
COc1ccnc(C(=O)NC(C)C(=O)OC(C)C(Oc2cccc(Cl)c2)C(C)C)c1O (centres unmarked) [Cmpd 432],"PUCCRT 1DP disease control rating, HV activity",Puccinia triticina; 1 Day Protectant,A (> 80)
same,"PUCCRT 3DC disease control rating, HV activity",Puccinia triticina; 3 Day Curative,B (≤ 80)
same,"SEPTTR 1DP disease control rating, HV activity",Zymoseptoria tritici; 1 Day Protectant,A (> 80)
same,"SEPTTR 3DC disease control rating, HV activity",Zymoseptoria tritici; 3 Day Curative,D
COc1ccnc(C(=O)N[C@@H](C)C(=O)O[C@@H](C)[C@@H](CC(C)C)OCC2CC2)c1O [Cmpd 1045],HV activity at 100 ppm PUCCRT 1DP (disease control rating),"Puccinia triticina; 100 ppm, 1 Day Protectant",A (> 80)
same,HV activity at 100 ppm PUCCRT 3DC (disease control rating),"Puccinia triticina; 100 ppm, 3 Day Curative",A (> 80)
same,HV activity at 100 ppm SEPTTR 1DP (disease control rating),"Zymoseptoria tritici; 100 ppm, 1 Day Protectant",D
same,HV activity at 100 ppm SEPTTR 3DC (disease control rating),"Zymoseptoria tritici; 100 ppm, 3 Day Curative",B (≤ 80)
COc1ccnc(C(=O)NC(C)C(=O)OC(C)C(Oc2ccccc2)c2cccs2)c1OC(C)=O (centres unmarked) [Cmpd 690],"PUCCRT 1DP disease control rating, LV activity at 125.1 g/H",Puccinia triticina; [3],B (≤ 80)
same,"PUCCRT 3DC disease control rating, LV activity at 125.1 g/H",Puccinia triticina; [4],B (≤ 80)
same,"SEPTTR 1DP disease control rating, LV activity at 125.1 g/H",Zymoseptoria tritici; [3],B (≤ 80)
same,"SEPTTR 3DC disease control rating, LV activity at 125.1 g/H",Zymoseptoria tritici; [4],B (≤ 80)
C=CC(OC(=O)C(C)NC(=O)c1nccc(OC)c1O)C(Oc1ccccc1)C(C)C (centres unmarked) [Cmpd 1033],HV activity at 100 ppm PUCCRT 1DP (disease control rating),"Puccinia triticina; 100 ppm, 1 Day Protectant",A (> 80)
same,HV activity at 100 ppm PUCCRT 3DC (disease control rating),"Puccinia triticina; 100 ppm, 3 Day Curative",A (> 80)
same,HV activity at 100 ppm SEPTTR 1DP (disease control rating),"Zymoseptoria tritici; 100 ppm, 1 Day Protectant",A (> 80)
same,HV activity at 100 ppm SEPTTR 3DC (disease control rating),"Zymoseptoria tritici; 100 ppm, 3 Day Curative",B (≤ 80)
"COc1ccnc(C(=O)N[C@@H](C)C(=O)O[C@@H](C)[C@H](Oc2ccc(C)cc2Cl)C2CCCC2)c1O [Cmpd 843, (S)-(1R,2S)-1-(2-chloro-4-methylphenoxy)-1-cyclopentylpropan-2-yl-2-(3-hydroxy-4-methoxypicolinamido)propanoate]","PUCCRT 1DP disease control rating, HV activity at 100 ppm",Puccinia triticina; [5],D
same,"PUCCRT 3DC disease control rating, HV activity at 100 ppm",Puccinia triticina; [6],D
same,"SEPTTR 1DP disease control rating, HV activity at 100 ppm",Zymoseptoria tritici; [5],D
same,"SEPTTR 3DC disease control rating, HV activity at 100 ppm",Zymoseptoria tritici; [6],B (≤ 80)
